Data set [1] relates to transformed PSC (human pancreatic stellate cells). As to the kind of experiment: PSC apoptosis, Cell Death Detection ELISA PLUS assay. Conditions: 14 h; for EC50: mean±SEM of at least three experiments. In kind it is cell-based. The method, then: These two representative analogues were also investigated to determine whether the growth inhibition induced by compounds 23 and 24 in PSC was attributed to apoptosis. Apoptosis was determined using the Cell Death Detection ELISA^PLUS assay. This sandwich-enzyme-immunoassay involved antibodies binding to cytoplasmic nucleosomes, which were specific to the process of apoptosis rather than necrosis. […] Next, the dose-response curve was generated (FIG. 3B). The EC50 represented the concentration at which the compound yielded half of the maximal amount of cell death. […] The capacity of the compounds to induce cell death in activated PSC would most likely translate into reduced fibrosis in CP. […] Under an IRB-approved tissue protocol, discarded human resected pancreatic tissue (500 mm^3) was attained fresh from the operating room at the University of Texas Medical Branch. The tissue was minced and plated on a collagen-coated flask (15 μg/mL, Invitrogen) with DMEM (VWR; Radnor, Pa.) supplemented with penicillin 200 U/mL, streptomycin 200 μg/mL, amphotericin B 0.25 μg/mL and gentimicin 50 μg/mL (Invitrogen, Carlsbad Calif.), 10% fetal bovine serum (Lonza, Walkersville, Md.), 1% insulin-transferrin, selenium-ethanolamine (Gibco, Grand Island, N.Y.), and 1% non-essential amino acids (Sigma-Aldrich, St. Louis, Mo.). The human PSC were isolated by the outgrowth method.^41-43 The purity of PSC culture was confirmed by immunohistochemical staining for vimentin, α-smooth muscle actin, glial fibrillar acidic protein, or Oil red O staining. Primary PSC were transformed and immortalized for use in experiments using lentiviral vectors containing SV40 Large T antigen and human telomerase (plasmid #12245 and 12246; Addgene, Cambridge, Mass.). Cultures were maintained in DMEM with 10% FBS, at 37° C. in a humidified […] atmosphere. Cell death assay. Transformed PSC (8×10^3) were plated in 96-well plates in triplicate. […] The Cell Death Detection ELISA^PLUS assay (Roche Applied Science, Indianapolis, Ind.) was used and protocol followed (Version 11.0). Absorbance was measured at 405 nm, using the EL×800 Automated Microplate Reader (Bio-TEK Instruments, Inc., Winooski, Vt.). Statistical analysis. Dose-response curves were generated by plotting fluorescence or absorbance versus log (compound concentration). A best-fit curve was created using nonlinear regression, and the IC50 or EC50 determined from the graph (GraphPad Prism 5; GraphPad Software Inc., La Jolla, Calif.). To analyze continuos variables, unpaired student t-tests and one-way ANOVA with Tukey-Kramer multiple comparisons post-test (GraphPad Prism 5). Significance was set at p<0.05.

Data set [2] has as its target T1, human CBS (cystathionine-β-synthase) (Homo sapiens, UniProt P35520).
T1 construct: GST (N); made in house; host or cells: E. coli BL21(DE3) Codon Plus
T1 sequence (P35520 1-551): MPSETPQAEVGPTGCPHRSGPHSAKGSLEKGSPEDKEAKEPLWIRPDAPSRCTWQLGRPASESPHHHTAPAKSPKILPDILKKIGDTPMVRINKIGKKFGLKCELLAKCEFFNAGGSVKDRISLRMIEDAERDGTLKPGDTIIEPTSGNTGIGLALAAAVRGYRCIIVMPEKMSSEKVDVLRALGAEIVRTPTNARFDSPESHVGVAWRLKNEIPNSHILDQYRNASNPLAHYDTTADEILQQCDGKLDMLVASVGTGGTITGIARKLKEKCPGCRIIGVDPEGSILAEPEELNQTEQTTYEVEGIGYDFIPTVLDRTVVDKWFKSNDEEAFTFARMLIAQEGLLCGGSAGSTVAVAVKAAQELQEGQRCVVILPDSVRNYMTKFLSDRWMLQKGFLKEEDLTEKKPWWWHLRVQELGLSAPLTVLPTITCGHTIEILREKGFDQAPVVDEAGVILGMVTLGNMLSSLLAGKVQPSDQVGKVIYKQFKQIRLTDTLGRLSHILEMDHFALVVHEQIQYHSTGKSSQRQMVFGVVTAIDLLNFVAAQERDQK
The data set can be described thus: H2S production by recombinant CBS. Format: biochemical. Conditions: 100 μM compound; H2S production as % of control (100%). The method, then: Recombinant human CBS protein expression and purification. The expression and purification of human CBS was performed as described previously (Asimakopoulou et al. 2013, Br J Pharmacol. 169(4):922-32). Briefly, E. Coli BL21(DE3) Codon Plus cells (Stratagene, La Jolla, Calif., USA) containing the expression vector pGEX-Kg/GST-CBS were grown at 37° C. and 180 rpm in LuriaBertani (LB) broth medium containing 100 μg/ml ampicillin to an absorption of 0.6-0.8 at 600 nm. Protein expression was induced by addition of 0.1 mM IPTG (isopropyl-b-D-thiogalactopyranoside) and cells were further incubated at 30° C. overnight. The bacteria were harvested and sonicated in lysis buffer PBS (140 mM NaCl, 2.7 mM KCl, 10 mM Na2HPO4, 1.8 mM KH2PO4, pH 7.8) containing a protease inhibitors cocktail (Sigma). The protein lysate was loaded onto a GSTrap FF 1 ml affinity column (Amersham Biosciences) and the GST-CBS recombinant protein was eluted with the elution buffer (50 mM Tris-HCl, 10 mM reduced glutathione, pH 8.0) and then dialyzed and concentrated in 10 mM sodium phosphate buffer (pH 8.2) and DTT (1 mM).
Measurement of H2S production by recombinant CBS. The measurement of H2S production by recombinant CBS enzyme was performed as described (Asimakopoulou et al. 2013, Br J Pharmacol. 169(4):922-32). Briefly, each test consisted of a 100 μl reaction mixture in 50 mM sodium phosphate buffer pH 8.2 containing 1 μg of the purified human CBS enzyme, 0.01 mM pyridoxal-5′-phosphate (PLP), 10 mM L-cysteine and 0.5 mM homocysteine. […] The reaction was initiated by transferring the Eppendorf tubes from ice to a 37° C. shaking water bath. After 60 minutes of incubation at 37° C., the reaction was terminated by adding 1% ZnAc followed by 10% trichloroacetic acid. Subsequently, N,N-dimethylphenylendiamine sulfate (20 mM in 7.2 M HCl) and FeCl3 (30 mM in 1.2 M HCl) were added and the optical absorbance of the solutions was measured at 650 nm.

Data set [3] is described as follows: Aqueous solubility by HPLC analysis method. Format: physicochemical. Particulars: in the form of HCl salt.

As to `COc1cc(OC)c2c(=O)cc(-c3ccc(OCC4CO4)cc3)oc2c1` (stereo not drawn) [Compound 23, 5,7-Dimethoxy-2-(4-oxiranylmethoxyphenyl)-chromen-4-one], the EC50 (commonly the concentration needed to bring the measured effect to its halfway point) in data set [1] was 9.6 ± 1.8 µM. Further, the activity at 100 µM in data set [2] was 119%.
Taken in the same sequence, the figures for `O=c1cc(-c2ccc(O)cc2)oc2cc(O)cc(O)c12` [Apigenin, 4′,5,7-trihydroxyflavone, reference compound] were 24.5 ± 2.5 µM and 80.8%.
Take `COc1cc(OC)c2c(=O)cc(-c3ccc(OCC(O)CN4CCCCC4)cc3)oc2c1` (stereo not drawn) [Compound 24, 2-(4-(2-Hydroxy-3-piperidin-1-yl-propoxy)phenyl)-5,7-dimethoxy-chromen-4-one]: in data set [1], the “Concentrations inducing stellate cell toxicity” value is listed as “greater than 25 μM” and the EC50 came to 35.2 ± 5.5 µM. In data set [3], the “Aqueous solubility compared with apigenin, result in words” value is given as “significantly improved solubility” and the “Aqueous solubility, saturated concentration” value came out at 84.1 mg/mL. Moreover, the activity at 100 µM in data set [2] is 79%.

Source of the values: US9868715B2 (THE BOARD OF REGENTS OF THE UNIVERSITY OF TEXAS SYSTEMS, priority 2014, dated 2018).
